Source: US20230287234A1, “EDIBLE COATINGS FOR MAINTAINING FRUIT QUALITY” (The State of Israel, Ministry of Agriculture & Rural …, priority 2020, published 2023)
Entries after “also recorded” stand apart in the source; their conditions may differ.

Assays:
[1] = tested on: stem-end rot and side rot of avocado fruit; assay: Effect of coatings with and without Phe on avocado decay (stem-end rot, side rot, total decay incidence); assay type: in vivo, 'Fuerte' avocado; details: avocado stored 12 d at 22° C.
Description: Three series of experiments were conducted. In each experiment the coated avocados were compared with uncoated fruits. The first experiment included seven edible coating formulations: carboxymethyl cellulose (CMC) (1% w/v), methylcellulose (MC) (1% w/v), hydroxypropyl methylcellulose (HPMC) (1% w/v), chitosan (1% w/v), alginate (1% w/v), and CMC with stearic acid (CMC+SA) (1% w/v and 0.6% w/v, respectively). The second, and third experiments included five edible coating formulations including phenylalanine, chitosan, CMC+SA, chitosan with phenylalanine, and CMC+SA with phenylalanine. In experiments 1-2 each treatment group included 8 avocados kept in cardboard boxes. In these experiments the fruit were stored for 14 and 12 days respectively at 20° C. (shelf-life conditions). In experiment 3 each treatment group included 14 avocados kept in cardboard boxes. […] Determination of decay incidences: Stem end rot (SER) was determined at the end of each experiment by assessing the visual appearance of the fruit stem end. SER was evaluated on a 0-3 scale, in which zero=no SER and three=severe SER. […] Side rot (Alternaria rot and anthracnose) was evaluated at the end of each experiment on a 0-3 scale, in which zero=no side rot and three=severe rot. […] Total decay incidences were determined by calculating the percentage of decayed fruit at the end of each experiment per treatment. […]

avocado fruit = assay: Chilling injury of coated avocados stored at optimal (5° C.) and sub-optimal (2° C.) temperature; assay type: in vivo, 'Ettinger' avocado; details: 21 d at 2° C. or 5° C., followed by one week at 22° C.; index 0-3
Description: Three series of experiments were conducted. In each experiment the coated avocados were compared with uncoated fruits. The first experiment included seven edible coating formulations: carboxymethyl cellulose (CMC) (1% w/v), methylcellulose (MC) (1% w/v), hydroxypropyl methylcellulose (HPMC) (1% w/v), chitosan (1% w/v), alginate (1% w/v), and CMC with stearic acid (CMC+SA) (1% w/v and 0.6% w/v, respectively). The second, and third experiments included five edible coating formulations including phenylalanine, chitosan, CMC+SA, chitosan with phenylalanine, and CMC+SA with phenylalanine. In experiments 1-2 each treatment group included 8 avocados kept in cardboard boxes. In these experiments the fruit were stored for 14 and 12 days respectively at 20° C. (shelf-life conditions). In experiment 3 each treatment group included 14 avocados kept in cardboard boxes. The formulations of the edible coatings were applied to the fruit using paintbrushes. […] Internal browning: Internal browning was determined by cutting each fruit for half, lengthwise, at the end of each experiment, and assessing the visual appearance of the fruit Internal browning. Internal browning was evaluated on a 0-3 scale, in which 0=no internal browning and 3=sever internal browning. […] Blackening and pitting of the skin surface, as well as internal browning, were assessed to measure chilling injury. […]

N[C@@H](Cc1ccccc1)C(=O)O [Phe, phenylalanine]
decay incidence and severity (stem-end rot and side rot) [1]: some effect on reducing fruit decay incidence and severity; also recorded: increased its resistance to postharvest decay
decay incidence and severity (stem-end rot and side rot) ([1]; listed as Phenylalanine): did not show clear protection effects
chilling injuries symptoms (avocado fruit): reduced the appearance of chilling injuries
